From patent US8883782B2, “Spiro-tetracyclic ring compounds as beta-secretase modulators and methods of use” (Amgen Inc., priority 2010, dated 2014) come the findings set out here.

Read-outs that look alike come from different tables or passages of the source.

The target in test [1] is Beta Secretase enzyme (BACE) (Homo sapiens, UniProt P56817). The test can be described thus: In vitro enzymatic BACE FRET (fluorescence resonance energy transfer) assay. Format: biochemical. The note with it: average IC50, enzyme assay; read-out: BACE 1 FRET assay. The gist of the method:
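Enzyme activity was measured at pH 4.2 (0.05 M acetate, 10% DMSO final, 100 uM genapol) by cleavage of a 50 nM quenched fluorogenic peptide. After one hour, Tris was added to neutralise the pH and fluorescence was recorded.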

Test [2] has as its system Aβ40 in conditioned medium of cells stably expressing Amyloid Precursor Protein (APP). The test can be described thus: In vitro BACE cell-based assay (Aβ40 in conditioned medium, sandwich ELISA). The settings on record: Homo sapiens, read-out: HEK cell assay. In outline: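 Secreted Aβ40 is captured with pAb40 and detected with biotinylated 6E10, read by europium time-resolved fluorescence. IC50 comes from percent inhibition versus concentration.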
Background: ELISA stands for enzyme-linked immunosorbent assay.

Setting [3] is: HEK293, average IC50, HEK cells.

Beta Secretase enzyme (BACE), sequence (P56817 46-501, species assumed): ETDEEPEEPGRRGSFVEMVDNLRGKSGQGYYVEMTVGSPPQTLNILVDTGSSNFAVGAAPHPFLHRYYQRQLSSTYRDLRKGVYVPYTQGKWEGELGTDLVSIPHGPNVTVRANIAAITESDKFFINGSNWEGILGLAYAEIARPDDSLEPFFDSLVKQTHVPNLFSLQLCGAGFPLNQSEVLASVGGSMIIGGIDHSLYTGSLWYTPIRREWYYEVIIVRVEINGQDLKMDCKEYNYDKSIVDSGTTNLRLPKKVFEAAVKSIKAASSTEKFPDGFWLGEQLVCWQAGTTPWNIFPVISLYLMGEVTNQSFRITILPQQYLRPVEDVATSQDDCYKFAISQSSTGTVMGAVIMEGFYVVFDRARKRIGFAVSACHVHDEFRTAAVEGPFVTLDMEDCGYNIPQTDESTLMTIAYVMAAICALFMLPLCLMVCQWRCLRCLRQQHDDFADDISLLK

On to `Cc1cnccc1-c1cc2c(cn1)Oc1ccc(-c3cccnc3F)cc1[C@@]21COC(N)=N1` [Example 246, (5S)-7-(2-fluoro-3-pyridinyl)-3-(3-methyl-4-pyridinyl)spiro[chromeno[2,3-c]pyridine-5,4′-[1,3]oxazol]-2′-amine], for which the IC50 was determined as 0.0542 µM in test [1] and 0.291 µM in test [2] (HEK293, average IC50).
Regarding `CC1(COc2cc3c(cc2F)Oc2ccc(-c4cncc(C#N)c4)cc2[C@@]32COC(N)=N2)COC1` [Example 330, 5-((4S)-2-amino-6′-fluoro-7′-((3-methyl-3-oxetanyl)methoxy)spiro[1,3-oxazole-4,9′-xanthen]-2′-yl)-3-pyridinecarbonitrile], the IC50 came out at 0.0088 µM in test [1] and 0.0336 µM in test [2] (HEK293, average IC50).
For the compound `C[C@@H]1CN(c2cc(F)c3c(c2)[C@]2(COC(N)=N2)c2cc(-c4cncc(C#N)c4)ccc2O3)C[C@H](C)O1` [Example 560, 5-((4S)-2-amino-7′-((2R,6S)-2,6-dimethyl-4-morpholinyl)-5′-fluorospiro[1,3-oxazole-4,9′-xanthen]-2′-yl)-3-pyridinecarbonitrile], the IC50 came out at 0.0028 µM in test [1] and 0.0142 µM in test [2] (setting [3]).
Take `CC(C)(C#N)COc1cc2c(c(F)c1F)Oc1ccc(-c3cccnc3)cc1[C@@]21COC(N)=N1` [Example 1009, 3-(((4S)-2-amino-3′,4′-difluoro-7′-(3-pyridinyl)spiro[1,3-oxazole-4,9′-xanthen]-2′-yl)oxy)-2,2-dimethylpropanenitrile]: the IC50 came to 0.0017 µM in test [1] and 0.032 µM in test [2] (HEK293, average IC50).
In the case of `NC1=N[C@@]2(CO1)c1cc(Oc3cccc(Cl)n3)ccc1Oc1c(F)cc(N3CCOCC3)cc12` [Example 1060, (4S)-7′-((6-chloro-2-pyridinyl)oxy)-4′-fluoro-2′-(4-morpholinyl)spiro[1,3-oxazole-4,9′-xanthen]-2-amine], the IC50 in test [1] stood at 0.0335 µM; in test [2] (HEK293, average IC50), 0.318 µM.
On to `NC1=N[C@@]2(CO1)c1cc(-c3c(F)ccnc3F)ccc1Oc1cnc(C3CCOCC3)cc12` [Example 616, (5S)-7-(2,4-difluoro-3-pyridinyl)-3-(tetrahydro-2H-pyran-4-yl)spiro[chromeno[2,3-c]pyridine-5,4′-[1,3]oxazol]-2′-amine], for which the figures for the IC50 in test [1] and in test [2] (setting [3]) were 0.017 µM and 0.176 µM, respectively.
Take `NC1=N[C@@]2(CO1)c1cc(-c3c(F)ccnc3F)ccc1Oc1cnc([C@H]3CCCOC3)cc12` [Example 913, (5S)-7-(2,4-difluoro-3-pyridinyl)-3-((3R)-tetrahydro-2H-pyran-3-yl)spiro[chromeno[2,3-c]pyridine-5,4′-[1,3]oxazol]-2′-amine]: the IC50 came to 0.0161 µM in test [1] and 0.211 µM in test [2] (setting [3]).
As for `CC1(C#Cc2cncc(-c3ccc4c(c3)[C@@]3(COC(N)=N3)c3cc(-c5ccnc(F)c5)ncc3O4)c2)COC1` [Example 812, (5S)-3-(2-fluoro-4-pyridinyl)-7-(5-((3-methyl-3-oxetanyl)ethynyl)-3-pyridinyl)spiro[chromeno[2,3-c]pyridine-5,4′-[1,3]oxazol]-2′-amine], the IC50 in test [1] is 0.0055 µM; in test [2] (HEK293, average IC50), 0.46 µM.
Regarding `N#Cc1cccc(-c2ccc3c(c2)[C@@]2(COC(N)=N2)c2cc(N4CCOCC4)cc(F)c2O3)c1` [Example 564, 3-((4S)-2-amino-5′-fluoro-7′-(4-morpholinyl)spiro[1,3-oxazole-4,9′-xanthen]-2′-yl)benzonitrile], the values for the IC50 in test [1] and in test [2] (setting [3]) were 0.0016 µM and 0.0092 µM, respectively.
As for `COc1nc(C2=CCCOC2)cc2c1Oc1ccc(-c3cccnc3F)cc1[C@@]21COC(N)=N1` [Example 833, (5S)-3-(5,6-dihydro-2H-pyran-3-yl)-7-(2-fluoro-3-pyridinyl)-1-methoxyspiro[chromeno[2,3-c]pyridine-5,4′-[1,3]oxazol]-2′-amine], the IC50 in test [1] was determined as 0.0007 µM; in test [2] (HEK293, average IC50), 0.021 µM.
Regarding `NC1=N[C@@]2(CO1)c1cc(-c3ccncc3F)ccc1Oc1cnc(-c3ccnc(F)c3)cc12` [Example 573, (5S)-3-(2-fluoro-4-pyridinyl)-7-(3-fluoro-4-pyridinyl)spiro[chromeno[2,3-c]pyridine-5,4′-[1,3]oxazol]-2′-amine], the IC50 in test [1] stood at 0.0708 µM; in test [2] (setting [3]) it was 0.801 µM.
In the case of `CC1(COc2cc3c(cc2F)Oc2ccc(-c4ccc(F)nc4)cc2[C@@]32COC(N)=N2)COC1` [Example 326, (4S)-3′-fluoro-7′-(6-fluoro-3-pyridinyl)-2′-((3-methyl-3-oxetanyl)methoxy)spiro[1,3-oxazole-4,9′-xanthen]-2-amine], the IC50 in test [1] is 0.0197 µM; in test [2] (HEK293, average IC50), 0.0616 µM.
For `NC1=N[C@@]2(CO1)c1cc(-c3cccnc3F)ccc1Oc1cnc(N3C[C@@H]4C[C@H]3CO4)cc12` [Example 891, (5S)-7-(2-fluoro-3-pyridinyl)-3-((1S,4S)-2-oxa-5-azabicyclo[2.2.1]hept-5-yl)spiro[chromeno[2,3-c]pyridine-5,4′-[1,3]oxazol]-2′-amine], the figures for the IC50 in test [1] and in test [2] (setting [3]) were 0.0019 µM and 0.061 µM, respectively.
Regarding `CC1(C)C[C@@H](c2cc3c(cn2)Oc2ccc(-c4cccnc4F)cc2[C@@]32COC(N)=N2)CCO1` [Example 378, (5S)-3-((4S)-2,2-dimethyltetrahydro-2H-pyran-4-yl)-7-(2-fluoro-3-pyridinyl)spiro[chromeno[2,3-c]pyridine-5,4′-[1,3]oxazol]-2′-amine], the IC50 in test [1] came out at 0.0043 µM; in test [2] (HEK293, average IC50), 0.0264 µM.
As for `NC1=N[C@@]2(CO1)c1cc(-c3ccccc3)ccc1Oc1c(F)cc(-c3cccnn3)cc12` [Example 559, (4S)-4′-fluoro-7′-phenyl-2′-(3-pyridazinyl)spiro[1,3-oxazole-4,9′-xanthen]-2-amine], the values for the IC50 in test [1] and in test [2] (setting [3]) were 0.0122 µM and 0.151 µM, respectively.
For `Cc1cncc(-c2ccc3c(c2)[C@@]2(COC(N)=N2)c2cc(C4=CCOCC4)cc(F)c2O3)c1` [Example 446, (4S)-2′-(3,6-dihydro-2H-pyran-4-yl)-4′-fluoro-7′-(5-methyl-3-pyridinyl)spiro[1,3-oxazole-4,9′-xanthen]-2-amine], the IC50 in test [1] was found to be 0.0019 µM; in test [2] (setting [3]), 0.0054 µM.
Turning to `CC(C)(O)C#Cc1ccc2c(c1)[C@]1(COC(N)=N1)c1cc(-c3cncnc3)c(F)cc1O2` [Example 336, 4-((4R)-2-amino-6′-fluoro-7′-(5-pyrimidinyl)spiro[1,3-oxazole-4,9′-xanthen]-2′-yl)-2-methyl-3-butyn-2-ol], the IC50 is 0.0064 µM in test [1] and 0.0193 µM in test [2] (HEK293, average IC50).
In the case of `CC1(COc2cc(F)c3c(c2)[C@@]2(CSC(N)=N2)c2cc(-c4cccnc4F)c(F)cc2O3)COC1` [Example 886, (4R)-3′,5′-difluoro-2′-(2-fluoro-3-pyridinyl)-7′-((3-methyl-3-oxetanyl)methoxy)spiro[1,3-thiazole-4,9′-xanthen]-2-amine], the IC50 in test [1] is 0.475 µM; in test [2] (setting [3]), not below 10 µM.
Regarding `CC(C)(C)C#Cc1cnc2c(c1)[C@@]1(COC(N)=N1)c1c(ccc(-c3cncnc3)c1F)O2` [Example 337, (5S)-3-(3,3-dimethyl-1-butyn-1-yl)-6-fluoro-7-(5-pyrimidinyl)spiro[chromeno[2,3-b]pyridine-5,4′-[1,3]oxazol]-2′-amine], the IC50 is 0.836 µM in test [1] and 0.535 µM in test [2] (HEK293, average IC50).
As to `NC1=N[C@@]2(CO1)c1cc(-c3cncc(F)c3)ccc1Oc1c(F)cc(C3=CCOCC3)cc12` [Example 447, (4S)-2′-(3,6-dihydro-2H-pyran-4-yl)-4′-fluoro-7′-(5-fluoro-3-pyridinyl)spiro[1,3-oxazole-4,9′-xanthen]-2-amine], the IC50 in test [1] came to 0.0011 µM; in test [2] (setting [3]), 0.0051 µM.
